The NIST ThermoML archive (doi:10.1021/je900789j)
± gives the expanded uncertainty stated by the source.

Conditions: 101.33 kPa, Liquid; for electrical conductivity: Alternating current cell with electrodes; for mass density: Vibrating tube method

CCCCn1cc[n+](C)c1.F[B-](F)(F)F [1-butyl-3-methylimidazolium tetrafluoroborate]
Conditions	electrical conductivity [S/m]	mass density [kg/m3]
238.05 K	0.00212 ± 2e-05	–
248.05 K	0.00778 ± 8e-05	–
258.05 K	0.0225 ± 0.0002	–
268.1 K	0.0542 ± 0.0005	–
278.1 K	0.1132 ± 0.0011	1215.43 ± 2.9
288.15 K	0.211 ± 0.002	1209.33 ± 2.8
298.15 K	0.352 ± 0.004	1202.08 ± 2.8
308.15 K	0.556 ± 0.006	1194.78 ± 2.8
318.15 K	0.821 ± 0.008	1187.79 ± 2.7
328.15 K	1.15 ± 0.012	1180.62 ± 2.7
338.15 K	1.545 ± 0.015	1173.51 ± 2.6
348.15 K	2 ± 0.02	–
358.15 K	2.52 ± 0.03	–
368.15 K	3.1 ± 0.03	–
378.15 K	3.73 ± 0.04	–
388.15 K	4.41 ± 0.04	–
398.15 K	5.13 ± 0.05	–
408.15 K	5.88 ± 0.06	–
418.15 K	6.64 ± 0.07	–
428.15 K	7.45 ± 0.07	–
438.15 K	8.29 ± 0.08	–
448.15 K	9.15 ± 0.09	–
458.15 K	10.04 ± 0.1	–
468.15 K	10.9 ± 0.11	–

CCn1cc[n+](C)c1.F[B-](F)(F)F [1-ethyl-3-methylimidazolium tetrafluoroborate]
Conditions	electrical conductivity [S/m]	mass density [kg/m3]
248.05 K	0.106 ± 0.0011	–
258.05 K	0.228 ± 0.002	–
268.1 K	0.423 ± 0.004	–
278.1 K	0.703 ± 0.007	1293.75 ± 3.2
288.15 K	1.08 ± 0.011	1288.03 ± 3.2
298.15 K	1.546 ± 0.015	1280.07 ± 3.2
308.15 K	2.11 ± 0.02	1272.48 ± 3.1
318.15 K	2.77 ± 0.03	1265.12 ± 3.1
328.15 K	3.51 ± 0.04	1256.89 ± 3.1
338.15 K	4.34 ± 0.04	1250.24 ± 3
348.15 K	5.23 ± 0.05	–
358.15 K	6.2 ± 0.06	–
368.15 K	7.22 ± 0.07	–
378.15 K	8.29 ± 0.08	–
388.15 K	9.41 ± 0.09	–
398.15 K	10.6 ± 0.11	–
408.15 K	11.8 ± 0.12	–
418.15 K	13 ± 0.13	–
428.15 K	14.22 ± 0.14	–
438.15 K	15.48 ± 0.15	–
448.15 K	16.8 ± 0.17	–
458.15 K	18.03 ± 0.18	–
468.15 K	19.3 ± 0.2	–

CCCCCCn1cc[n+](C)c1.F[B-](F)(F)F [1-hexyl-3-methylimidazolium tetrafluoroborate]
Conditions	electrical conductivity [S/m]	mass density [kg/m3]
238.05 K	0.000405 ± 4e-06	–
248.05 K	0.00169 ± 1.7e-05	–
258.05 K	0.00544 ± 5e-05	–
268.1 K	0.0145 ± 0.00015	–
278.1 K	0.0332 ± 0.0003	1159.81 ± 2.6
288.15 K	0.0672 ± 0.0007	1153.14 ± 2.6
298.15 K	0.1229 ± 0.0012	1146.18 ± 2.5
308.15 K	0.207 ± 0.002	1139.15 ± 2.5
318.15 K	0.326 ± 0.003	1132.31 ± 2.5
328.15 K	0.483 ± 0.005	1125.18 ± 2.4
338.15 K	0.683 ± 0.007	1118.54 ± 2.4
348.15 K	0.926 ± 0.009	–
358.15 K	1.214 ± 0.012	–
368.15 K	1.545 ± 0.015	–
378.15 K	1.92 ± 0.02	–
388.15 K	2.33 ± 0.02	–
398.15 K	2.78 ± 0.03	–
408.15 K	3.26 ± 0.03	–
418.15 K	3.77 ± 0.04	–
428.15 K	4.31 ± 0.04	–
438.15 K	4.88 ± 0.05	–
448.15 K	5.46 ± 0.05	–
458.15 K	6.07 ± 0.06	–
468.15 K	6.69 ± 0.07	–

CCCCCCCC[n+]1ccn(C)c1.F[B-](F)(F)F [1-methyl-3-octylimidazolium tetrafluoroborate]
Conditions	electrical conductivity [S/m]	mass density [kg/m3]
238.05 K	0.0001524 ± 1.5e-06	–
248.05 K	0.00065 ± 7e-06	–
258.05 K	0.00218 ± 2e-05	–
268.1 K	0.00605 ± 6e-05	–
278.1 K	0.01441 ± 0.00014	1116.79 ± 2.4
288.15 K	0.0304 ± 0.0003	1110.36 ± 2.4
298.15 K	0.0579 ± 0.0006	1103.6 ± 2.3
308.15 K	0.1012 ± 0.001	1096.82 ± 2.3
318.15 K	0.1647 ± 0.0016	1090.04 ± 2.3
328.15 K	0.252 ± 0.003	1083.22 ± 2.2
338.15 K	0.368 ± 0.004	1076.46 ± 2.2
348.15 K	0.512 ± 0.005	–
358.15 K	0.688 ± 0.007	–
368.15 K	0.895 ± 0.009	–
378.15 K	1.134 ± 0.011	–
388.15 K	1.403 ± 0.014	–
398.15 K	1.701 ± 0.017	–
408.15 K	2.03 ± 0.02	–
418.15 K	2.38 ± 0.02	–
428.15 K	2.75 ± 0.03	–
438.15 K	3.15 ± 0.03	–
448.15 K	3.56 ± 0.04	–
458.15 K	3.99 ± 0.04	–
468.15 K	4.44 ± 0.04	–
